Where two headings read alike, the source gives them in different places.
Tests used:
EGFR WT (wild type EGFR) = EGFR WT (wild type EGFR) (Homo sapiens (Human), UniProt P00533); test: In vitro enzymatic TR-FRET (HTRF KinEASE-TK) kinase assay, EGFR WT; type: biochemical
Procedure, shortened: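 Recombinant enzyme preincubated with compound 10 min at room temperature in kinase buffer with 5 mM MgCl2, 1 mM MnCl2, 1 mM DTT. Biotinylated TK substrate plus ATP then added for 40 min. HTRF detection (Sa-XL665, Cryptate antibody) for 1 h; IC50 from 665/615 nm ratio.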

A431 cells (EGFR WT) = test: A431 cell proliferation inhibition assay (CellTiter-Glo); type: cell-based; conditions: Homo sapiens
Procedure, shortened: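 Seeded cells grown 24 h, then exposed 72 h (37° C, 5% CO2) to graded compound dilutions at 0.1% DMSO final. Viability read by CellTiter-Glo luminescence after 30 min at room temperature; IC50 fitted from the dose curve.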

[1] = test system: Ba/F3_Del19/T790M/C797S cells; test: Ba/F3_Del19/T790M/C797S cell proliferation inhibition assay (CellTiter-Glo); type: cell-based; conditions: Mus musculus
Procedure, shortened: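 Ba/F3 cells carrying EGFR Del19/T790M/C797S were seeded at 700 cells/well and exposed to serially diluted compound (0.1% DMSO final) for 72 h at 37° C. Viability was read by CellTiter-Glo luminescence to give IC50.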

[2] = test system: Ba/F3_L858R/T790M/C797S cells; test: Ba/F3_L858R/T790M/C797S cell proliferation inhibition assay (CellTiter-Glo); type: cell-based; conditions: Mus musculus
Procedure, shortened: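 Ba/F3 cells engineered to carry EGFR L858R/T790M/C797S, seeded at 700 cells/well, exposed to serially diluted compound (0.1% DMSO final) for 72 h at 37 °C, 5% CO2. Viability read by CellTiter-Glo luminescence after 30 min at room temperature; IC50 from dose-response fit.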

[3] = kinase activity, TR-FRET, read-out: EGFR (WT) IC50
[4] = A-431, 72 h, read-out: A431 EGFR WT IC50(nM)
[5] = BaF3, 72 h, read-out: Ba/F3 (Del19/T790M/C797S) IC50(nM)
[6] = BaF3, 72 h, read-out: Ba/F3 (L858R/T790M/C797S) IC50(nM)
[7] = A-431, cell proliferation, 72 h, CellTiter-Glo, read-out: A431 EGFR WT IC50
[8] = BaF3, cell proliferation, 72 h, CellTiter-Glo, read-out: Ba/F3 (Del19/T790M/C797S) IC50
[9] = BaF3, cell proliferation, 72 h, CellTiter-Glo, read-out: Ba/F3 (L858R/T790M/C797S) IC50

Sequence of EGFR WT (wild type EGFR) (P00533 25-1210): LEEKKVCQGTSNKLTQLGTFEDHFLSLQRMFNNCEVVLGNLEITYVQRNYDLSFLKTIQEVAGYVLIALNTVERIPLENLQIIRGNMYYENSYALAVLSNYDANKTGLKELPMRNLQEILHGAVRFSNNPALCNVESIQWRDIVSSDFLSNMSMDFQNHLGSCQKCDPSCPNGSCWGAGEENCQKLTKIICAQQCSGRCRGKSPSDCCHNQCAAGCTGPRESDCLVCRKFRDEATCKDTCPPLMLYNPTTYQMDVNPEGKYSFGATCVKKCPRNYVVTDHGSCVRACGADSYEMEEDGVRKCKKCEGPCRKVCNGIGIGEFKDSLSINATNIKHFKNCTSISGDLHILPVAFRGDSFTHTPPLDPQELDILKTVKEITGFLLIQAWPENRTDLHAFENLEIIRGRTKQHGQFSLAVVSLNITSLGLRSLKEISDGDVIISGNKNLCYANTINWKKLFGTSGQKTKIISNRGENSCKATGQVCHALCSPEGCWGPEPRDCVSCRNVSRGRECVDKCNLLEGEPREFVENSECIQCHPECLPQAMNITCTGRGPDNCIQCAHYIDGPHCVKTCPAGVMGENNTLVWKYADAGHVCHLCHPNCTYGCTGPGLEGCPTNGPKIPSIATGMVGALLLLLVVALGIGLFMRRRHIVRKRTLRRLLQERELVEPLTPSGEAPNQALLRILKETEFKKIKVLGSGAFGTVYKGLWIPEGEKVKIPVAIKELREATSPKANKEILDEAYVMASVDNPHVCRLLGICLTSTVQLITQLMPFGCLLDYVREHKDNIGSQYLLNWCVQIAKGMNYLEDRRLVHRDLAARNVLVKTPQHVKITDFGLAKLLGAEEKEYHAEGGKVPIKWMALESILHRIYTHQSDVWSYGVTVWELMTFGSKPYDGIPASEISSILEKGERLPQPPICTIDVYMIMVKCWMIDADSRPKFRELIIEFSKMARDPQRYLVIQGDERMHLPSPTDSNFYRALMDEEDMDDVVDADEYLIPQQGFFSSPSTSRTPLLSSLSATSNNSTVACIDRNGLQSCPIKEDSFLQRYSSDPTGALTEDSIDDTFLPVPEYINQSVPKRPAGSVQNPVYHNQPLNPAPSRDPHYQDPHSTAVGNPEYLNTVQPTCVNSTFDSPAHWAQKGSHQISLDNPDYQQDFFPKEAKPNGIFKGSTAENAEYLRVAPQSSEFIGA

SMILES	IC50 (EGFR WT (wild type EGFR); [3]) [nM]	IC50 (A431 cells (EGFR WT); [7]) [nM]	IC50 [1, 8] [nM]	IC50 [2, 9] [nM]	IC50 (A431 cells (EGFR WT); [4]) [nM]	IC50 [1, 5] [nM]	IC50 [2, 6] [nM]	IC50 (EGFR WT (wild type EGFR)) [nM]
COc1cc2c(cc1Nc1ncc(Br)c(Nc3ccc4nccnc4c3C(=O)N(C)C)n1)-c1cnn(C)c1CCN2C(C)C [Compound 109]	1 to 10				100 to 1000	10 to 50	10 to 50	
COc1cc2c(cc1Nc1ncc(Br)c(Nc3ccc4nccnc4c3N(C(C)C)S(C)(=O)=O)n1)-c1cnn(C)c1CCN2 [Compound 123]					100 to 1000	< 10	< 10	1 to 10
COc1cc2c(cc1Nc1ncc(Br)c(Nc3ccc(F)cc3NS(C)(=O)=O)n1)-c1cnn(C)c1CCN2C(C)C [Compound 128]	1 to 10	> 1000	< 10	< 10				
CNC(=O)c1c(Nc2nc(Nc3cc4c(cc3OC)N(C(C)C)CCc3c-4cnn3C)ncc2Br)ccc2nccnc12 [Compound 129]	1 to 10	100 to 1000	10 to 50	10 to 50				
COc1cc2c(cc1Nc1ncc(Br)c(Nc3ccc4nccnc4c3N(C)S(C)(=O)=O)n1)-c1cnn(C)c1CCN2C(C)C [Compound 131]	1 to 10	> 1000	10 to 50	10 to 50				
COc1cc2c(cc1Nc1ncc(Br)c(Nc3cccc4c3NS(=O)(=O)C4)n1)-c1cnn(C)c1CCN2C(C)C [Compound 132]	10 to 50	> 1000	10 to 50	10 to 50				
COc1cc2c(cc1Nc1ncc(Br)c(Nc3ccnc(C)c3NS(C)(=O)=O)n1)-c1cnn(C)c1CCN2C [Compound 136]	1 to 10	> 1000	100 to 1000	100 to 1000				
COc1cc2c(cc1Nc1ncc(Br)c(Nc3ccc4nccnc4c3CNS(C)(=O)=O)n1)-c1cnn(C)c1CCN2C(C)C [Compound 137]	1 to 10	100 to 1000	10 to 50	10 to 50				
COc1cc2c(cc1Nc1ncc(Br)c(Nc3ccc4nccnc4c3N(C)S(C)(=O)=O)n1)-c1cnn(C)c1CCN2C1CCOCC1 [Compound 138]	1 to 10	100 to 1000	< 10	< 10				

Continued, in another order:

IC50 (EGFR WT (wild type EGFR); [3]) [nM]	IC50 (A431 cells (EGFR WT); [7]) [nM]	IC50 [1, 8] [nM]	IC50 [2, 9] [nM]	SMILES	IC50 (A431 cells (EGFR WT); [4]) [nM]	IC50 [1, 5] [nM]	IC50 [2, 6] [nM]	IC50 (EGFR WT (wild type EGFR)) [nM]
1 to 10	100 to 1000	10 to 50	50 to 100	COc1cc2c(cc1Nc1ncc(Br)c(Nc3ccn4ccnc4c3NS(C)(=O)=O)n1)-c1cnn(C)c1CCN2C(C)C [Compound 110]				
1 to 10	100 to 1000	< 10	10 to 50	COc1cc2c(cc1Nc1ncc(Br)c(Nc3ccnc(C)c3P(C)(C)=O)n1)-c1cnn(C)c1CCN2C(C)C [Compound 111]				
1 to 10	100 to 1000	< 10	10 to 50	COc1cc2c(cc1Nc1ncc(Br)c(Nc3ccc4nccnc4c3NS(C)(=O)=O)n1)-c1cn(C)nc1CCN2C(C)C [Compound 112]				
1 to 10	100 to 1000	< 10	10 to 50	COc1cc2c(cc1Nc1ncc(Br)c(Nc3ccc4nccnc4c3NS(C)(=O)=O)n1)-c1cnn(C)c1CCN2C#N [Compound 113]				
1 to 10	> 1000	100 to 1000	100 to 1000	COc1cc2c(cc1Nc1ncc(Br)c(Nc3ccccc3S(=O)(=O)N(C)C)n1)-c1cnn(C)c1CCN2C(C)C [Compound 126]				

Reference: US20240034743A9, “TRICYCLIC COMPOUNDS AS EGFR INHIBITORS” (QILU PHARMACEUTICAL CO., LTD., priority 2020, published 2024)
